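Grown in 96-well plates, cells were treated for 48 hours with each compound at five concentrations. Insufficient inhibition: endpoint recorded as highest concentration tested. The concentration for 50% growth inhibition is given as GI50.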 The source made the active and inactive calls. Rule as the data show it: active = GI50 up to about 1.1 µM and inactive = higher.
Experiments:
Assay in all cases: NCI tumour cell line growth inhibition, 48 h
786-0 = system: 786-0
SF-539 = system: SF-539
HCT-15 = system: HCT-15
MDA-MB-435 = system: MDA-MB-435
NCI/ADR-RES = system: NCI/ADR-RES
Malme-3M = system: Malme-3M
A549 = system: A549
MCF7 = system: MCF7
IGROV-1 = system: IGROV-1
UACC-257 = system: UACC-257
LOX IMVI = system: LOX IMVI
TK-10 = system: TK-10
M14 = system: M14
MDA-MB-231 = system: MDA-MB-231
HL-60 = system: HL-60
HCT-116 = system: HCT-116
DU-145 = system: DU-145
SK-MEL-28 = system: SK-MEL-28
A498 = system: A498
COLO 205 = system: COLO 205
MDA-N = system: MDA-N
SF-268 = system: SF-268
NCI-H23 = system: NCI-H23
SNB-75 = system: SNB-75
KM12 = system: KM12
CAKI-1 = system: CAKI-1
SW-620 = system: SW-620
T47D = system: T47D
HOP-62 = system: HOP-62
NCI-H460 = system: NCI-H460
MOLT-4 = system: MOLT-4
SN12C = system: SN12C
ACHN = system: ACHN
RXF 393 = system: RXF 393
HT-29 = system: HT-29
Hs-578T = system: Hs-578T
OVCAR-3 = system: OVCAR-3
SK-OV-3 = system: SK-OV-3
CCRF-CEM = system: CCRF-CEM
OVCAR-8 = system: OVCAR-8
UO-31 = system: UO-31
K562 = system: K562
BT-549 = system: BT-549
SK-MEL-5 = system: SK-MEL-5
NCI-H522 = system: NCI-H522
OVCAR-4 = system: OVCAR-4
SNB-19 = system: SNB-19
HOP-92 = system: HOP-92
OVCAR-5 = system: OVCAR-5
UACC-62 = system: UACC-62
PC-3 = system: PC-3
SK-MEL-2 = system: SK-MEL-2
SF-295 = system: SF-295
EKVX = system: EKVX
U-251 = system: U-251
HCC 2998 = system: HCC 2998
RPMI-8226 = system: RPMI-8226
NCI-H226 = system: NCI-H226

How did the GI50 (786-0) turn out when `CCOC(=O)c1nc2ccc(C(F)(F)F)cc2nc1Nc1ccc(F)cc1` was run?
Its GI50 is 45.3 µM (inactive).

And the GI50 (SF-539)?
The GI50 was 57.5 µM (inactive).

What about the GI50 (HCT-15) of the same compound?
Its GI50 is over 100 µM.

And the GI50 (MDA-MB-435)?
Its GI50 is > 100 µM (inactive).

What about the GI50 (NCI/ADR-RES) of the same compound?
The GI50 was > 100 µM (inactive).

What about the GI50 (Malme-3M) of the same compound?
The GI50 was > 100 µM (inactive).

And the GI50 (A549)?
The GI50 was 28.8 µM (inactive).

And the GI50 (MCF7)?
The GI50 was > 100 µM (inactive).

What about the GI50 (IGROV-1) of the same compound?
Its GI50 is 87.7 µM (inactive).

What about the GI50 (UACC-257) of the same compound?
The GI50 was > 100 µM (inactive).

What about the GI50 (LOX IMVI) of the same compound?
The GI50 was > 100 µM (inactive).

And the GI50 (TK-10)?
The GI50 was 92.3 µM (inactive).

What about the GI50 (M14) of the same compound?
Its GI50 is > 100 µM (inactive).

What about the GI50 (MDA-MB-231) of the same compound?
The GI50 was > 10 µM (inactive).

What about the GI50 (HL-60) of the same compound?
The GI50 was > 100 µM (inactive).

What about the GI50 (HCT-116) of the same compound?
The GI50 was > 100 µM (inactive).

What about the GI50 (DU-145) of the same compound?
Its GI50 is > 100 µM (inactive).

What about the GI50 (SK-MEL-28) of the same compound?
The GI50 was > 100 µM (inactive).

What about the GI50 (A498) of the same compound?
Its GI50 is > 100 µM (inactive).

What about the GI50 (COLO 205) of the same compound?
Its GI50 is > 100 µM (inactive).

What about the GI50 (MDA-N) of the same compound?
Its GI50 is > 100 µM (inactive).

And the GI50 (SF-268)?
The GI50 was 52.1 µM (inactive).

And the GI50 (NCI-H23)?
Its GI50 is 40.3 µM (inactive).

And the GI50 (SNB-75)?
The GI50 was 32.1 µM (inactive).

What about the GI50 (KM12) of the same compound?
Its GI50 is > 100 µM (inactive).

And the GI50 (CAKI-1)?
The GI50 was > 100 µM (inactive).

And the GI50 (SW-620)?
Its GI50 is > 100 µM (inactive).

And the GI50 (T47D)?
The GI50 was > 100 µM (inactive).

And the GI50 (HOP-62)?
The GI50 was 58.9 µM (inactive).

And the GI50 (NCI-H460)?
Its GI50 is 28.9 µM (inactive).

What about the GI50 (MOLT-4) of the same compound?
Its GI50 is > 100 µM (inactive).

And the GI50 (SN12C)?
Its GI50 is > 100 µM (inactive).

And the GI50 (ACHN)?
Its GI50 is > 100 µM (inactive).

And the GI50 (RXF 393)?
Its GI50 is 38.5 µM (inactive).

And the GI50 (HT-29)?
The GI50 was > 100 µM (inactive).

What about the GI50 (Hs-578T) of the same compound?
The GI50 was 21.9 µM (inactive).

What about the GI50 (OVCAR-3) of the same compound?
Its GI50 is > 100 µM (inactive).

And the GI50 (SK-OV-3)?
Its GI50 is > 100 µM (inactive).

What about the GI50 (CCRF-CEM) of the same compound?
Its GI50 is > 10 µM (inactive).

And the GI50 (OVCAR-8)?
The GI50 was 47.6 µM (inactive).

What about the GI50 (UO-31) of the same compound?
The GI50 was 49.5 µM (inactive).

And the GI50 (K562)?
Its GI50 is > 100 µM (inactive).

What about the GI50 (BT-549) of the same compound?
Its GI50 is > 100 µM (inactive).

What about the GI50 (SK-MEL-5) of the same compound?
The GI50 was > 10 µM (inactive).

What about the GI50 (NCI-H522) of the same compound?
Its GI50 is 54.6 µM (inactive).

What about the GI50 (OVCAR-4) of the same compound?
The GI50 was > 100 µM (inactive).

And the GI50 (SNB-19)?
The GI50 was 43.9 µM (inactive).

And the GI50 (HOP-92)?
The GI50 was 19 µM (inactive).

What about the GI50 (OVCAR-5) of the same compound?
The GI50 was > 100 µM (inactive).

And the GI50 (UACC-62)?
Its GI50 is > 100 µM (inactive).

And the GI50 (PC-3)?
The GI50 was > 100 µM (inactive).

What about the GI50 (SK-MEL-2) of the same compound?
Its GI50 is > 100 µM (inactive).

And the GI50 (SF-295)?
The GI50 was 49.2 µM (inactive).

Which GI50 (786-0) does the source give for `CCCCNc1nc(O)c2[nH]cnc2n1` here?
Its GI50 is > 100 µM (inactive).

And the GI50 (SF-539)?
Its GI50 is > 100 µM (inactive).

And the GI50 (HCT-15)?
The GI50 was over 100 µM.

What about the GI50 (MDA-MB-435) of the same compound?
The GI50 was > 100 µM (inactive).

What about the GI50 (EKVX) of the same compound?
Its GI50 is > 100 µM (inactive).

And the GI50 (NCI/ADR-RES)?
Its GI50 is > 100 µM (inactive).

And the GI50 (Malme-3M)?
Its GI50 is > 100 µM (inactive).

What about the GI50 (A549) of the same compound?
Its GI50 is > 100 µM (inactive).

What about the GI50 (MCF7) of the same compound?
Its GI50 is > 100 µM (inactive).

And the GI50 (IGROV-1)?
Its GI50 is > 100 µM (inactive).

What about the GI50 (UACC-257) of the same compound?
The GI50 was > 100 µM (inactive).

What about the GI50 (LOX IMVI) of the same compound?
Its GI50 is > 100 µM (inactive).

What about the GI50 (TK-10) of the same compound?
The GI50 was > 100 µM (inactive).

What about the GI50 (M14) of the same compound?
Its GI50 is > 100 µM (inactive).

And the GI50 (U-251)?
Its GI50 is > 100 µM (inactive).

What about the GI50 (MDA-MB-231) of the same compound?
Its GI50 is > 100 µM (inactive).

What about the GI50 (HCC 2998) of the same compound?
Its GI50 is > 100 µM (inactive).

And the GI50 (HCT-116)?
Its GI50 is > 100 µM (inactive).

And the GI50 (DU-145)?
Its GI50 is > 100 µM (inactive).

What about the GI50 (A498) of the same compound?
The GI50 was > 100 µM (inactive).

And the GI50 (COLO 205)?
Its GI50 is > 100 µM (inactive).

What about the GI50 (MDA-N) of the same compound?
The GI50 was > 100 µM (inactive).

What about the GI50 (SF-268) of the same compound?
Its GI50 is > 100 µM (inactive).

And the GI50 (NCI-H23)?
Its GI50 is > 100 µM (inactive).

What about the GI50 (SNB-75) of the same compound?
Its GI50 is > 100 µM (inactive).

And the GI50 (KM12)?
The GI50 was > 100 µM (inactive).

What about the GI50 (RPMI-8226) of the same compound?
The GI50 was > 100 µM (inactive).

What about the GI50 (CAKI-1) of the same compound?
The GI50 was > 100 µM (inactive).

What about the GI50 (SW-620) of the same compound?
The GI50 was > 100 µM (inactive).

And the GI50 (T47D)?
The GI50 was > 100 µM (inactive).

And the GI50 (HOP-62)?
Its GI50 is > 100 µM (inactive).

And the GI50 (NCI-H460)?
The GI50 was > 100 µM (inactive).

And the GI50 (MOLT-4)?
Its GI50 is > 100 µM (inactive).

What about the GI50 (SN12C) of the same compound?
Its GI50 is > 100 µM (inactive).

And the GI50 (ACHN)?
Its GI50 is > 100 µM (inactive).

What about the GI50 (RXF 393) of the same compound?
Its GI50 is > 100 µM (inactive).

And the GI50 (HT-29)?
The GI50 was > 100 µM (inactive).

And the GI50 (Hs-578T)?
Its GI50 is > 100 µM (inactive).

What about the GI50 (OVCAR-3) of the same compound?
Its GI50 is > 100 µM (inactive).

What about the GI50 (SK-OV-3) of the same compound?
Its GI50 is > 100 µM (inactive).

And the GI50 (CCRF-CEM)?
Its GI50 is > 100 µM (inactive).

And the GI50 (OVCAR-8)?
Its GI50 is > 100 µM (inactive).

And the GI50 (UO-31)?
Its GI50 is > 100 µM (inactive).

What about the GI50 (K562) of the same compound?
The GI50 was > 100 µM (inactive).

What about the GI50 (BT-549) of the same compound?
Its GI50 is > 100 µM (inactive).

And the GI50 (SK-MEL-5)?
Its GI50 is > 100 µM (inactive).

And the GI50 (NCI-H522)?
Its GI50 is 51.8 µM (inactive).

What about the GI50 (OVCAR-4) of the same compound?
Its GI50 is > 100 µM (inactive).

What about the GI50 (SNB-19) of the same compound?
The GI50 was > 100 µM (inactive).

And the GI50 (HOP-92)?
Its GI50 is > 100 µM (inactive).

What about the GI50 (OVCAR-5) of the same compound?
Its GI50 is > 100 µM (inactive).

And the GI50 (UACC-62)?
The GI50 was > 100 µM (inactive).

And the GI50 (PC-3)?
The GI50 was > 100 µM (inactive).

What about the GI50 (SK-MEL-2) of the same compound?
The GI50 was > 100 µM (inactive).

And the GI50 (NCI-H226)?
Its GI50 is > 100 µM (inactive).

And the GI50 (SF-295)?
Its GI50 is > 100 µM (inactive).

Reference: ChEMBL document CHEMBL1201862, “PubChem BioAssay data set” (2004)
